Experimental data as given in patent US10166218B2, “3-(1H-indol-2-yl)-1H-pyrazolo[3,4-C]pyridines and therapeutic uses thereof” (Samumed, LLC, priority 2015, dated 2019).

Legend:
Type in all cases: cell-based
[1] = system: Wnt activity (Sp5-Luc reporter, TCF/LEF binding sites) in SW480 colon carcinoma cells; test: Screening assay for Wnt activity: Sp5-Luc reporter gene assay in stably transduced SW480 cells; settings: Homo sapiens, overnight incubation
Source text: The screening assay for Wnt activity is described as follows. Reporter cell lines can be generated by stably transducing cancer cell lines (e.g., colon cancer) or primary cells (e.g., IEC-6 intestinal cells) with a lentiviral construct that includes a Wnt-responsive promoter driving expression of the firefly luciferase gene.
SW480 colon carcinoma cells were transduced with a lentiviral vector expressing luciferase with a human Sp5 promoter consisting of a sequence of eight TCF/LEF binding sites. SW480 cells stably expressing the Sp5-Luc reporter gene and a hygromycin resistance gene were selected by treatment with 150 μg/mL of hygromycin for 7 days. These stably transduced SW480 cells were expanded in cell culture and used for all further screening activities. Each compound was dissolved in DMSO as a 10 mM stock and used to prepare compound source plates. Serial dilution (1:3, 10-point dose-response curves starting from 10 μM) and compound transfer was performed using the ECHO 550 (Labcyte, Sunnyvale, Calif.) into 384-well white solid bottom assay plates (Greiner Bio-One) with appropriate DMSO backfill for a final DMSO concentration of 0.1%. For Sp5-Luc reporter gene assays, the cells were plated at 4,000 cells/well in 384-well plates with medium containing 1% fetal bovine serum and incubated overnight at 37° C. and 5% CO2. Following incubation, 20 μl of BrightGlo luminescence reagent (Promega) was added to each well of the 384-well assay plates. The plates were placed on an orbital shaker for 2 min and then luminescence was quantified using the Envision (Perkin Elmer) plate reader. Readings were normalized to DMSO only treated cells, and normalized activities were utilized for EC50 calculations using the dose-response log (inhibitor) vs. response-variable slope (four parameters) nonlinear regression feature available in GraphPad Prism 5.0 (or Dotmatics). For EC50 of >10 μM, the percent inhibition at 10 μM is provided.

SW480 colon cancer cells = test: Cell viability assay (CellTiter-Blue) in SW480 colon cancer cells; settings: Homo sapiens, 96 h, four days, CellTiter-Blue
Protocol: Representative compounds were screened using the following assay procedure to assess the effect on cell viability as described below.
Each compound was dissolved in DMSO as a 10 mM stock and used to prepare compound source plates. Serial dilution (1:3, 8-point dose-response curves from 10 μM to 0.0045 μM) and compound transfer was performed using the ECHO 550 (Labcyte, Sunnyvale, Calif.) into 96-well clear bottom, black-walled plates (Corning-Costar).
Approximately 2×10^3 SW480 colon cancer cells were seeded into each well and allowed to incubate in the presence or absence of compound for four days at 37° C./5% CO2. Eight replicates of DMSO-treated cells served as controls and cells treated with compound were performed in duplicate.
After incubation, 20 μL of CellTiter-Blue (Promega) was added to each well allowed to incubate for approximately 3 hours. This reagent was a buffered solution which contains resazurin, metabolically active cells were able to reduce rezarurin (blue) into resorufin (pink) which was highly fluorescent. This measured fluorescence was used as a readout for cell viability.
After incubation, the plates were read at Ex 560 nm Em 590 nm (Cytation 3, BioTek). Dose-response curves were generated and EC50 concentration values were calculated using non-linear regression curve fit in the GraphPad Prism (San Diego, Calif.) or Dotmatics' Studies Software (Bishops Stortford, UK). For EC50 of >10 μM, the percent inhibition at 10 μM is provided.

[2] = system: primary human fibroblasts derived from IPF patients (LL29 cells) treated with TGF-β1; α-smooth muscle actin (αSMA); test: Inhibition of the fibrotic process: αSMA staining in TGF-β1 treated primary human fibroblasts from IPF patients (LL29 cells); settings: Fibroblast, 96 h, TGF-β1 20 ng/mL, 4 days, % cells positive for αSMA
Source text: Representative compounds were screened using primary human fibroblasts (derived from IPF patients) treated with TGF-β1 to determine their ability to inhibit the fibrotic process.
Primary human fibroblasts derived from IPF patients (LL29 cells) [^1Xiaoqiu Liu, et. al., “Fibrotic Lung Fibroblasts Show Blunted Inhibition by cAMP Due to Deficient cAMP Response Element-Binding Protein Phosphorylation”, Journal of Pharmacology and Experimental Therapeutics (2005), 315(2), 678-687; ^2Watts, K. L., et. al., “RhoA signaling modulates cyclin D1 expression in human lung fibroblasts; implications for idiopathic pulmonary fibrosis”, Respiratory Research (2006), 7(1), 88] were obtained from American Type Culture Collection (ATCC) and expanded in F12 medium supplemented with 15% Fetal Bovine Serum and Penicillin/Streptomycin.
Each compound was dissolved in DMSO as a 10 mM stock and used to prepare compound source plates. Serial dilution (1:2, 11-point dose-response curves from 10 μM to 1.87 nM) and compound transfer was performed using the ECHO 550 (Labcyte, Sunnyvale, Calif.) into 384-well clear bottom assay plates (Greiner Bio-One) with appropriate DMSO backfill for a final DMSO concentration of 0.1%. LL29 cells are plated at 1,500 cells/well in 80 μL/well F12 medium supplemented with 1% Fetal Bovine Serum. One hour after addition of the cells, TGF-β1 (Peprotech; 20 ng/mL) was added to the plates to induce fibrosis (ref. 1 and 2 above). Wells treated with TGF-β1 and containing DMSO were used as controls. Cells were incubated at 37° C. and 5% CO2 for 4 days. Following incubation for 4 days, SYTOX green nucleic acid stain (Life Technologies [Thermo Fisher Scientific]) was added to the wells at a final concentration of 1 μM and incubated at room temperature for 30 min. Cells were then fixed using 4% formaldehyde (Electron Microscopy Sciences), washed 3 times with PBS followed by blocking and permeabilization using 3% Bovine Serum Albumin (BSA; Sigma) and 0.3% Triton X-100 (Sigma) in PBS. Cells were then stained with antibody specific to α-smooth muscle actin (αSMA; Abcam) (ref. 1 and 2 above) in 3% Bovine Serum Albumin (BSA; Sigma) and 0.3% Triton X-100 (Sigma) in PBS, and incubated overnight at 4° C. Cells were then washed 3 times with PBS, followed by incubation with Alexa Flor-647 conjugated secondary antibody (Life Technologies [Thermo Fisher Scientific]) and DAPI at room temperature for 1 hour. Cells were then washed 3 times with PBS and plates were sealed for imaging. αSMA staining was imaged by excitation at 630 nm and emission at 665 nm and quantified using the Compartmental Analysis program on the CellInsight CX5 (Thermo Scientific). Dead or apoptotic cells were excluded from analysis based on positive SYTOX green staining. % of total cells positive for αSMA were counted in each well and normalized to the average of 11 wells treated with TGF-β1 on the same plate using Dotmatics' Studies Software. The normalized averages (fold change over untreated) of 3 replicate wells for each compound concentration were used to create dose-responses curves and EC50 values were calculated using non-linear regression curve fit in the Dotmatics' Studies Software. For EC50 of >10 μM, the percent inhibition at 10 μM is provided.

IL-6 (THP-1 cells) = test: Inhibition of IL-6 in LPS-stimulated THP-1 human monocyte cells (HTRF); settings: inhibition of IL-6 in LPS-stimulated THP-1 cells, HTRF, 10-point dose-response starting from 10 μM
Protocol: Human monocyte cell line (THP-1 cells; Catalog # TIB-202, ATCC, Manassas, Va.) were cultured in Roswell Park Memorial Institute (RPMI) 1640 Medium (Catalog #21870-100, Buffalo, N.Y.) with 1% L-glutamine, 1% HEPES, 1% Sodium Pyruvate, 2% Sodium Bicarbonate supplemented with 100 units/mL penicillin, 50 μg/mL streptomycin, 2-mercaptoethanol (0.05 mM) [basal medium] and 10% fetal bovine serum (Catalog #16140089, Life Technologies, Carlsbad, Calif.) at 37° C. and 5% CO2.
THP-1 cells were cultured in basal media with 1% FBS for 24 hours before the start of the assay. Each compound was dissolved in DMSO as a 10 mM stock and used to prepare compound source plates. Serial dilution (1:3, 10-point dose-response curves starting from 10 μM) and compound transfer was performed using the ECHO 550 (Labcyte, Sunnyvale, Calif.) into 384-well white low volume assay plates (Greiner Bio-One) with appropriate DMSO backfill for a final DMSO concentration of 0.1%. THP-1 cells were plated at 5000 cells/well in the 384-well plates and incubated at 37° C. for 2 h. 500 ng/mL of LPS was added after 2 hours and cells were incubated for another 22 hours at 37° C. Plates were spun in a centrifuge for 1 minute at […] and a mixture of anti-IL6 XL665, and anti-IL6 Cryptate diluted in reconstitution buffer (Cisbio Inc.) was added to each well. Following incubation for 3 hrs at room temperature, Homogeneous Time-Resolved Fluorescence (HTRF) was measured using the Envision (Perkin Elmer) at 665 nm and […]. The ratio of fluorescence at 665 nm to 620 nm was used as a readout for IL6 quantification. All samples were processed in duplicate. Readings were normalized to DMSO treated cells and normalized activities were utilized for EC50 calculations using the dose-response log (inhibitor) vs. response-variable slope (four parameters) nonlinear regression feature available in GraphPad Prism 5.0 (or Dotmatics). For EC50 of >10 μM, the percent inhibition at 10 μM is provided.

Compound	EC50 [1]	EC50 (SW480 colon cancer cells)	EC50 [2]	EC50 (IL-6 (THP-1 cells))
CCC(=O)Nc1cncc(-c2cc3c(-c4cc5c(-c6cccc(F)c6)cccc5[nH]4)n[nH]c3cn2)c1 [Compound 1, N-(5-(3-(4-(3-Fluorophenyl)-1H-indol-2-yl)-1H-pyrazolo[3,4-c]pyridin-5-yl)pyridin-3-yl)propionamide]	570 nM	4070 nM	529 nM	2920 nM
CN(C)Cc1cncc(-c2cc3c(-c4cc5c(-c6cccc(F)c6)cccc5[nH]4)n[nH]c3cn2)c1 [Compound 13, 1-(5-(3-(4-(3-Fluorophenyl)-1H-indol-2-yl)-1H-pyrazolo[3,4-c]pyridin-5-yl)pyridin-3-yl)-N,N-dimethylmethanamine]	1350 nM	4930 nM	2200 nM	7520 nM
CC(C)(C)CC(=O)Nc1cncc(-c2cc3c(-c4cc5c(-c6cccc(F)c6)cccc5[nH]4)n[nH]c3cn2)c1 [Compound 16, N-(5-(3-(4-(3-Fluorophenyl)-1H-indol-2-yl)-1H-pyrazolo[3,4-c]pyridin-5-yl)pyridin-3-yl)-3,3-dimethylbutanamide]	1970 nM	3920 nM	640 nM	1870 nM
Fc1cccc(-c2cccc3[nH]c(-c4n[nH]c5cnc(-c6cncc(CN7CCC(F)(F)C7)c6)cc45)cc23)c1 [Compound 26, 5-(5-((3,3-Difluoropyrrolidin-1-yl)methyl)pyridin-3-yl)-3-(4-(3-fluorophenyl)-1H-indol-2-yl)-1H-pyrazolo[3,4-c]pyridine]	1030 nM	3950 nM	92 nM	3090 nM
Fc1cccc(-c2cccc3[nH]c(-c4n[nH]c5cnc(-c6ccccn6)cc45)cc23)c1 [Compound 28, 3-(4-(3-Fluorophenyl)-1H-indol-2-yl)-5-(pyridin-2-yl)-1H-pyrazolo[3,4-c]pyridine]	2240 nM	3530 nM	1180 nM	3600 nM
CC(C)(C)C(=O)Nc1cncc(-c2cc3c(-c4cc5c(-c6ccc(F)cc6)cccc5[nH]4)n[nH]c3cn2)c1 [Compound 36, N-(5-(3-(4-(4-Fluorophenyl)-1H-indol-2-yl)-1H-pyrazolo[3,4-c]pyridin-5-yl)pyridin-3-yl)pivalamide]	872 nM	5960 nM	1010 nM	1630 nM
Fc1ccccc1-c1cccc2[nH]c(-c3n[nH]c4cnc(-c5cccnc5)cc34)cc12 [Compound 60, 3-(4-(2-Fluorophenyl)-1H-indol-2-yl)-5-(pyridin-3-yl)-1H-pyrazolo[3,4-c]pyridine]	740 nM	909 nM	90 nM	2570 nM
CC(C)Nc1cncc(-c2cc3c(-c4cc5c(-c6ccccc6F)cccc5[nH]4)n[nH]c3cn2)c1 [Compound 68, 5-(3-(4-(2-Fluorophenyl)-1H-indol-2-yl)-1H-pyrazolo[3,4-c]pyridin-5-yl)-N-isopropylpyridin-3-amine]	494 nM	1610 nM	215 nM	3100 nM
CC(C)(C)CC(=O)Nc1cncc(-c2cc3c(-c4cc5c(-c6ccccc6F)cccc5[nH]4)n[nH]c3cn2)c1 [Compound 72, N-(5-(3-(4-(2-Fluorophenyl)-1H-indol-2-yl)-1H-pyrazolo[3,4-c]pyridin-5-yl)pyridin-3-yl)-3,3-dimethylbutanamide]	1700 nM	4430 nM	701 nM	3210 nM
FC1(F)CCN(Cc2cncc(-c3cc4c(-c5cc6c(-c7cccnc7)cccc6[nH]5)n[nH]c4cn3)c2)C1 [Compound 110, 5-(5-((3,3-Difluoropyrrolidin-1-yl)methyl)pyridin-3-yl)-3-(4-(pyridin-3-yl)-1H-indol-2-yl)-1H-pyrazolo[3,4-c]pyridine]	137 nM	1070 nM	81 nM	422 nM
CC(C)CC(=O)Nc1cncc(-c2cc3c(-c4cc5c(-c6ccncc6)cccc5[nH]4)n[nH]c3cn2)c1 [Compound 114, 3-Methyl-N-(5-(3-(4-(pyridin-4-yl)-1H-indol-2-yl)-1H-pyrazolo[3,4-c]pyridin-5-yl)pyridin-3-yl)butanamide]	469 nM	6980 nM	33 nM	1080 nM
